In publication PMC12365925, “Structural insights into a bacterial terpene cyclase fused with haloacid Dehalogenase-like phosphatase” (Chemical Science, 2025):

Target: T1, AsDMS (wild-type drimenol synthase) (Aquimarina spongiae, UniProt A0A1M6CXF0)
T1 construct: gene SAMN04488508_102320; wild-type, bifunctional N-terminal HAD and C-terminal TCbeta domains; dimer by gel filtration
Test: steady-state kinetics of dephosphorylation
Assay type: biochemical
Conditions: HAD domain phosphatase site, Mg2+-dependent

T1 sequence (A0A1M6CXF0 entry or part of it): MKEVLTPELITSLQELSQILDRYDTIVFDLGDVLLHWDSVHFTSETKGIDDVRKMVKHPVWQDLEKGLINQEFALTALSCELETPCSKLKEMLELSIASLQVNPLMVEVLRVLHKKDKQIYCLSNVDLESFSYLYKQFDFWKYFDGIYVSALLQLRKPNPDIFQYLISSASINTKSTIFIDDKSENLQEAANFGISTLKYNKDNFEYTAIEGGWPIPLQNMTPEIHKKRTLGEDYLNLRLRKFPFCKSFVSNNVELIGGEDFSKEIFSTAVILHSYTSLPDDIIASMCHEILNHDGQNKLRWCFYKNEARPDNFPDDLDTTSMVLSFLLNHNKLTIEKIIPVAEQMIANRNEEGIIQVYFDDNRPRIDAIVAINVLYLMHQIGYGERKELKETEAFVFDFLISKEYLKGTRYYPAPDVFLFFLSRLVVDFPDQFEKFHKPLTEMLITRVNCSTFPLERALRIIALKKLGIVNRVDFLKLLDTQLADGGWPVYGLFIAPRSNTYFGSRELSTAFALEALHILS

Km: 5.81 ± 0.81 µM
SMILES: CC1=CC[C@H]2C(C)(C)CCC[C@]2(C)[C@H]1COP(=O)(O)O [compound 3, drimenyl monophosphate]
